This note sets out measurements from patent publication US10385019B2, “Inhibitors of EGFR and methods of use thereof” (Dana-Farber Cancer Institute, Inc., priority 2015, dated 2019).

Where two headings read alike, the source gives them in different places.

Holding throughout (assay): Ba/F3 cell proliferation model
Format in all cases: cell-based, murine

Experiment [1] deals with EGFR T790M/L858R Ba/F3 cell line (Homo sapiens, UniProt P00533, T790M/L858R, cells depend on it). To be noted: for Activity (% inhibition): combined with cetuximab (% cetuximab, 1.0 μM drug concentration with 1.0 μg/mL cetuximab). In short, it runs like this:
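Murine Ba/F3 cells made IL-3-independent by retroviral EGFR L858R/T790M, selected in puromycin (2 μg/ml) and kept in RPMI 1640 with 10% FBS. Cells were exposed to serially diluted compound for 72 h, with growth read by MTS assay in six wells per point and ≥3 repeats. Sigmoidal dose-response non-linear regression gave the values.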

The target in experiment [2] is Del/T790M Ba/F3 cell line (Homo sapiens, UniProt P00533, DEL746-750/T790M, cells depend on it). The source says:
(§1) The selectivity between wild-type EGFR and EGFR containing one or more mutations as described herein can also be measured using cellular proliferation assays where cell proliferation is dependent on kinase activity. For example, murine Ba/F3 cells transfected with a suitable version of wild-type EGFR (such as VIII; containing a WT EGFR kinase domain), or Ba/F3 cells transfected with L858R/T790M, Del/T790M/L718Q, L858R/T790M/L718Q, L858R/T790M/C797S, Del/T790M/C797S, L858R/T790M/I941R, or Exon 19 deletion/T790M can be used.
(§2) Cell lines are plated in media. The compounds of the present disclosure are then serially diluted and transferred to the cells. Cell viability is measured via a luminescent readout. Data is analyzed by non-linear regression curve-fitting.
(§3) The EGFR mutant L858R, Del E746_A750, L858R/T790M, DelE746_A750/T790M, L858R/T790M/C797S and Del/T790M/C797S Ba/F3 cells have been previously described (Zhou, W., Ercan, D., Chen, L., Yun, C. H., Li, D., Capelletti, M., Cortot, A. B., Chirieac, L., Iacob, R. E., Padera, R., et al. “Novel mutant-selective EGFR kinase inhibitors against EGFR T790M,” Nature 462, (2009), 1070-1074). All cell lines were maintained in RPMI 1640 (Cellgro; Mediatech Inc., Herndon, Calif.) supplemented with 10% FBS 100 units/mL penicillin, 100 units/mL streptomycin, and 2 mM glutamine. L858R cells were maintained in ACL-4 media (Invitrogen, Carlsbad, Calif.) supplemented with 5% FBS, 100 units/mL penicillin, 100 units/mL streptomycin, and 2 mM glutamine. The EGFR I941R mutation was introduced via site directed mutagenesis using the Quick Change Site-Directed Mutagenesis kit (Stratagene; La Jolla, Calif.) according to the manufacturer's instructions. All constructs were confirmed by DNA sequencing. The constructs were shuttled into the retroviral vector JP 1540 using the BD Creator™ System (BD Biosciences). Ba/F3 cells were infected with retrovirus and according to standard protocols, as described previously (Zhou et al, Nature 2009). Stable clones were obtained by selection in puromycin (2 μg/ml).
(§4) Growth and inhibition of growth was assessed by MTS assay and was performed according to previously established methods (Zhou et al., Nature 2009). The MTS assay is a colorimetric method for determining the number of viable cells that is based on the bioreduction of MTS by cells to a formazan product that is soluble in cell culture medium and can be detected spectrophotometrically. Ba/F3 cells of different EGFR genotypes were exposed to treatment for 72 hours and the number of cells used per experiment determined empirically and has been previously established (Zhou et al., Nature 2009). All experimental points were set up in six wells and all experiments were repeated at least three times. […] The curves were fitted using a non-linear regression model with a sigmoidal dose response.

The subject of experiment [3] is EGFR Parental Ba/F3 cell line. To be noted: Mus musculus, BaF3; compound alone.
Source text: as §1, §2, §3, §4

The mark [4] stands for this setting: compound alone, read-out: L858R/T790M IC50.
[5] abbreviates: read-out: L858R/T790M Cetuximab IC50, in combination with Cetuximab.
Where [6] appears, read: compound alone, read-out: Del/T790M IC50.
The mark [7] stands for this setting: read-out: Del/T790M Cetuximab IC50, in combination with Cetuximab.

Chain of EGFR T790M/L858R Ba/F3 cell line (P00533 whole entry T790M/L858R): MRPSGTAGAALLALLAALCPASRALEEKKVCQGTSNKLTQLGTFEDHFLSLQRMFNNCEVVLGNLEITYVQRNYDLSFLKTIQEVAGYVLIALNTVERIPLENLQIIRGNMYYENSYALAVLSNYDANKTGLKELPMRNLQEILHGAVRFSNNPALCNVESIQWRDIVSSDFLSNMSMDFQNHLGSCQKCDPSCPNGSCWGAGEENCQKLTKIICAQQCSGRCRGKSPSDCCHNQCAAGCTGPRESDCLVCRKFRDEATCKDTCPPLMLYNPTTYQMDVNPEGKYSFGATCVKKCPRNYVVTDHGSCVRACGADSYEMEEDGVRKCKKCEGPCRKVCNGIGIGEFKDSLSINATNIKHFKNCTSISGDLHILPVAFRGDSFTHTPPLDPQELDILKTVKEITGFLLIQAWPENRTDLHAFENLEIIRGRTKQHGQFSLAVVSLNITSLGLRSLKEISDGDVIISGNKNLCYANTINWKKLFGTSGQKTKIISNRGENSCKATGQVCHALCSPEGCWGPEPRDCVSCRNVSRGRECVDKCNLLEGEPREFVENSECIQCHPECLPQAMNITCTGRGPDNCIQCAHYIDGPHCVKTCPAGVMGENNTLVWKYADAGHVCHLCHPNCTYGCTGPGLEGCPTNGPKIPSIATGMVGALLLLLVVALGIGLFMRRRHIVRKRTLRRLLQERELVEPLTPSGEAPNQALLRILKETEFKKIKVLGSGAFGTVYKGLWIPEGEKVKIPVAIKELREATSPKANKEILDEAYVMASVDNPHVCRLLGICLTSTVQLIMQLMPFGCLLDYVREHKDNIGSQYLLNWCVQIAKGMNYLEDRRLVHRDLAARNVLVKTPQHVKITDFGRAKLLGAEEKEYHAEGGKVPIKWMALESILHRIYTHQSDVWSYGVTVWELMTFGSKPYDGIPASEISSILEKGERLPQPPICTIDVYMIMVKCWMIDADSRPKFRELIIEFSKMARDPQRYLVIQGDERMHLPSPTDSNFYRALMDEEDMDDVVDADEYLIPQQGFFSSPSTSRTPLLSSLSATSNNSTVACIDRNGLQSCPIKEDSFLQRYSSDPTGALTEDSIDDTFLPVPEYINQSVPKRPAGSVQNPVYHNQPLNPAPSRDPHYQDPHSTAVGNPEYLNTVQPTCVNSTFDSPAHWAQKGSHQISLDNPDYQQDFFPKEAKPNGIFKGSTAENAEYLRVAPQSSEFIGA
Chain of Del/T790M Ba/F3 cell line (P00533 with tags, fused parts or gaps DEL746-750/T790M): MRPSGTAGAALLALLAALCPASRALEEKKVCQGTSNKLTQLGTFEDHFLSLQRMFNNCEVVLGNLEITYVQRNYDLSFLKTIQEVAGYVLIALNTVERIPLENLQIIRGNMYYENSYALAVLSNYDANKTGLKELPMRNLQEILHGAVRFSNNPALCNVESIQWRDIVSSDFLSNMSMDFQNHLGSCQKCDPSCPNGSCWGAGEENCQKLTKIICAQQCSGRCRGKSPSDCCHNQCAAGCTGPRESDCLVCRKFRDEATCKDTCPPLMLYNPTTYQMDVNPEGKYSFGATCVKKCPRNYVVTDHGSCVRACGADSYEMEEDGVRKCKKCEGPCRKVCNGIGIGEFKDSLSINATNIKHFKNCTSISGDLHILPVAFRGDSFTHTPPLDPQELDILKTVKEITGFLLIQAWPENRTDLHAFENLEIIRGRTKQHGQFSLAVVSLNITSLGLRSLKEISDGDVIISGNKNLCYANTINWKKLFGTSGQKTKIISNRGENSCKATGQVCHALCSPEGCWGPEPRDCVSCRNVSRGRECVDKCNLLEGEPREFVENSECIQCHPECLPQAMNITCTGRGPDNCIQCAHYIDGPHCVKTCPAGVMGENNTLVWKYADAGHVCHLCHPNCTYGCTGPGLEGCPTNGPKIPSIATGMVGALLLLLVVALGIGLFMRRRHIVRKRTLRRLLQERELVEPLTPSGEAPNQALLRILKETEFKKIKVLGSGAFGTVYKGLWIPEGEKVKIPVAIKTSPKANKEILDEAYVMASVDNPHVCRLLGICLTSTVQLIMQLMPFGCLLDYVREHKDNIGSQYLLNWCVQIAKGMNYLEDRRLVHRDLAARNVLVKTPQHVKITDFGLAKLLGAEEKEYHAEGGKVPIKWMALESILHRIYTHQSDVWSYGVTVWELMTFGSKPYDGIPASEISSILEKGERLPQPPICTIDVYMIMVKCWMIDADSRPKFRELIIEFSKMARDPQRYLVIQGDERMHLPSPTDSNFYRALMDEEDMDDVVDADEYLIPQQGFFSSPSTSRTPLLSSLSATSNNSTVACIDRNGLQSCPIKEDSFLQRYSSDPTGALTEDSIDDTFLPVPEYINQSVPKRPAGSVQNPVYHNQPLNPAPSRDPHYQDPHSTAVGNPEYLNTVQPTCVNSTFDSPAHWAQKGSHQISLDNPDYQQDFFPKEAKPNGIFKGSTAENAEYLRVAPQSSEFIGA

The term IC50 denotes the concentration that inhibits the measured activity by half. With `O=C(Nc1nccs1)[C@@H](c1ccccc1)N1Cc2ccc(-c3ccc4c(c3)OCCO4)cc2C1=O` [Compound I-65, (R)-2-(6-(2,3-dihydrobenzo[b] [1,4]dioxin-6-yl)-1-oxoisoindolin-2-yl)-2-phenyl-N-(thiazol-2-yl)acetamide], the “Activity (% inhibition)” value in experiment [1] is on record as “D (a % inhibition of between about 0% to about 25%)”. For the same molecule, the GI50 in experiment [1] (setting [4]) is greater than 10 µM; in experiment [1] (setting [5]), less than 0.5 µM; in experiment [2] (setting [6]), greater than 10 µM; in experiment [2] (setting [7]) it was greater than 10 µM. The half-maximal inhibitory concentration (IC50) in experiment [3] was greater than 10 µM.
Take `O=C(Nc1nccs1)[C@@H](c1ccccc1)N1Cc2ccc(-c3ccc4[nH]ccc4c3)cc2C1=O` [Compound I-66, (R)-2-(6-(1H-indol-5-yl)-1-oxoisoindolin-2-yl)-2-phenyl-N-(thiazol-2-yl)acetamide]: the “Activity (% inhibition)” value in experiment [1] is reported as “D (a % inhibition of between about 0% to about 25%)”. The GI50 was 1 to 10 µM in experiment [1] (setting [4]), less than 0.5 µM in experiment [1] (setting [5]), greater than 10 µM in experiment [2] (setting [6]) and 1 to 10 µM in experiment [2] (setting [7]). The concentration for half-maximal inhibition (IC50) in experiment [3] was greater than 10 µM.
With `O=C(Nc1nccs1)[C@@H](c1ccccc1)N1Cc2ccc(-c3ccc(N4CCNCC4)cc3)cc2C1=O` [Compound I-68, (R)-2-(1-oxo-6-(4-(piperazin-1-yl)phenyl)isoindolin-2-yl)-2-phenyl-N-(thiazol-2-yl)acetamide], the “Activity (% inhibition)” value in experiment [1] is given as “D (a % inhibition of between about 0% to about 25%)”. Also, the GI50 in experiment [1] (setting [4]) was 1 to 10 µM; in experiment [1] (setting [5]), less than 0.5 µM; in experiment [2] (setting [6]), 1 to 10 µM; in experiment [2] (setting [7]), 1 to 10 µM. Moreover, in experiment [3], the IC50 was in the range of 1 to 10 µM.
Take `CN1CCN(c2ccc(-c3ccc4c(c3)C(=O)N([C@@H](C(=O)Nc3nccs3)c3ccccc3)C4)cc2)CC1` [Compound I-69, (R)-2-(6-(4-(4-methylpiperazin-1-yl)phenyl)-1-oxoisoindolin-2-yl)-2-phenyl-N-(thiazol-2-yl) acetamide]: the “Activity (% inhibition)” value in experiment [1] is reported as “D (a % inhibition of between about 0% to about 25%)”. Further, the GI50 in experiment [1] (setting [4]) is 1 to 10 µM; in experiment [1] (setting [5]), less than 0.5 µM; in experiment [2] (setting [6]) it was 1 to 10 µM; in experiment [2] (setting [7]), 1 to 10 µM. For the same molecule, the 50% inhibitory concentration (IC50) in experiment [3] was 1 to 10 µM.
Take `O=C(Nc1nccs1)[C@@H](c1ccccc1)N1Cc2ccc(-c3cnc4ccccc4c3)cc2C1=O` [Compound I-70, (R)-2-(1-oxo-6-(quinolin-3-yl)isoindolin-2-yl)-2-phenyl-N-(thiazol-2-yl)acetamide]: the “Activity (% inhibition)” value in experiment [1] is “D (a % inhibition of between about 0% to about 25%)”. In addition, the GI50 in experiment [1] (setting [4]) was greater than 10 µM; in experiment [1] (setting [5]), less than 0.5 µM; in experiment [2] (setting [6]), greater than 10 µM; in experiment [2] (setting [7]), greater than 10 µM. For the same molecule, the IC50 in experiment [3] was greater than 10 µM.
For `O=C(Nc1nccs1)[C@@H](c1ccccc1)N1Cc2ccc(-c3ccccc3F)cc2C1=O` [Compound I-75, (R)-2-(6-(2-fluorophenyl)-1-oxoisoindolin-2-yl)-2-phenyl-N-(thiazol-2-yl)acetamide], in experiment [1], the “Activity (% inhibition)” value is “D (a % inhibition of between about 0% to about 25%)”. The GI50 was greater than 10 µM in experiment [1] (setting [4]), less than 0.5 µM in experiment [1] (setting [5]), 1 to 10 µM in experiment [2] (setting [6]) and 1 to 10 µM in experiment [2] (setting [7]). Also, the concentration for half-maximal inhibition (IC50) in experiment [3] was greater than 10 µM.
For the molecule `COc1cc(OC)cc(-c2ccc3c(c2)C(=O)N([C@@H](C(=O)Nc2nccs2)c2ccccc2)C3)c1` [Compound I-79, (R)-2-(6-(3,5-dimethoxyphenyl)-1-oxoisoindolin-2-yl)-2-phenyl-N-(thiazol-2-yl)acetamide], the “Activity (% inhibition)” value in experiment [1] is reported as “D (a % inhibition of between about 0% to about 25%)”. Moreover, the GI50 was greater than 10 µM in experiment [1] (setting [4]), less than 0.5 µM in experiment [1] (setting [5]), greater than 10 µM in experiment [2] (setting [6]) and greater than 10 µM in experiment [2] (setting [7]). The concentration for half-maximal inhibition (IC50) in experiment [3] is greater than 10 µM.
As to `CN(C)CCNC(=O)c1ccc(-c2ccc3c(c2)C(=O)N([C@@H](C(=O)Nc2nccs2)c2ccccc2)C3)cc1` [Compound I-81, (R)-N-(2-(dimethylamino)ethyl)-4-(3-oxo-2-(2-oxo-1-phenyl-2-(thiazol-2-ylamino)ethyl)isoindolin-5-yl)benzamide], the “Activity (% inhibition)” value in experiment [1] was “D (a % inhibition of between about 0% to about 25%)”. Also, the GI50 in experiment [1] (setting [4]) is 1 to 10 µM; in experiment [1] (setting [5]), less than 0.5 µM; in experiment [2] (setting [6]), 1 to 10 µM; in experiment [2] (setting [7]), 1 to 10 µM. Moreover, the IC50 in experiment [3] lay within 1 to 10 µM.
Regarding `O=C(Nc1nccs1)[C@H](c1ccccc1)N1Cc2ccc(-c3ccc4[nH]ccc4c3)cc2C1=O` [Compound I-112, (S)-2-(6-(1H-indol-5-yl)-1-oxoisoindolin-2-yl)-2-phenyl-N-(thiazol-2-yl)acetamide], the “Activity (% inhibition)” value in experiment [1] is reported as “D (a % inhibition of between about 0% to about 25%)”. Besides, the GI50 in experiment [1] (setting [4]) was 1 to 10 µM; in experiment [1] (setting [5]), less than 0.5 µM; in experiment [2] (setting [6]), greater than 10 µM; in experiment [2] (setting [7]), greater than 10 µM. Moreover, the IC50 in experiment [3] was greater than 10 µM.
`O=C(Nc1nccs1)[C@H](c1ccccc1)N1Cc2ccc(-c3ccccc3F)cc2C1=O` [Compound I-113, (S)-2-(6-(2-fluorophenyl)-1-oxoisoindolin-2-yl)-2-phenyl-N-(thiazol-2-yl)acetamide]: in experiment [1], the “Activity (% inhibition)” value was “C (a % inhibition of between about 25% to about 50%)”. The GI50 is greater than 10 µM in experiment [1] (setting [4]), less than 0.5 µM in experiment [1] (setting [5]), greater than 10 µM in experiment [2] (setting [6]) and greater than 10 µM in experiment [2] (setting [7]). The IC50 in experiment [3] was greater than 10 µM.
In the case of `O=C(Nc1nccs1)[C@H](c1ccccc1)N1Cc2ccc(-c3ccc(N4CCNCC4)cc3)cc2C1=O` [Compound I-115, (S)-2-(1-oxo-6-(4-(piperazin-1-yl)phenyl)isoindolin-2-yl)-2-phenyl-N-(thiazol-2-yl)acetamide], the “Activity (% inhibition)” value in experiment [1] is “D (a % inhibition of between about 0% to about 25%)”. The GI50 is 1 to 10 µM in experiment [1] (setting [4]), less than 0.5 µM in experiment [1] (setting [5]), 1 to 10 µM in experiment [2] (setting [6]) and 1 to 10 µM in experiment [2] (setting [7]). Moreover, the 50% inhibitory concentration (IC50) in experiment [3] is 1 to 10 µM.
As for `CC(C)(C)OC(=O)N1CCN(c2ccc(-c3ccc4c(c3)C(=O)N([C@@H](C(=O)Nc3nccs3)c3ccccc3)C4)c(F)c2)CC1` [Compound I-119, tert-butyl (R)-4-(3-fluoro-4-(3-oxo-2-(2-oxo-1-phenyl-2-(thiazol-2-ylamino)ethyl)isoindolin-5-yl)phenyl)piperazine-1-carboxylate], the “Activity (% inhibition)” value in experiment [1] was “D (a % inhibition of between about 0% to about 25%)”. Also, the GI50 in experiment [1] (setting [4]) was greater than 10 µM; in experiment [1] (setting [5]) it was less than 0.5 µM; in experiment [2] (setting [6]) it was greater than 10 µM; in experiment [2] (setting [7]) it was greater than 10 µM. The half-inhibitory concentration (IC50) in experiment [3] is greater than 10 µM.
As for `O=C(Nc1nccs1)[C@@H](c1ccccc1)N1Cc2ccc(-c3ccc(N4CCNCC4)cc3F)cc2C1=O` [Compound I-120, (R)-2-(6-(2-fluoro-4-(piperazin-1-yl)phenyl)-1-oxoisoindolin-2-yl)-2-phenyl-N-(thiazol-2-yl)acetamide], the “Activity (% inhibition)” value in experiment [1] is given as “D (a % inhibition of between about 0% to about 25%)”. The GI50 in experiment [1] (setting [4]) was 1 to 10 µM; in experiment [1] (setting [5]) it was less than 0.5 µM; in experiment [2] (setting [6]), 1 to 10 µM; in experiment [2] (setting [7]), 1 to 10 µM. For the same molecule, the half-maximal inhibitory concentration (IC50) in experiment [3] lay within 1 to 10 µM.
